Data reported in PubChem BioAssay AID1645848.
In brackets after ≈: the same amount, converted by molar mass.

Details: buffer; pH 7.4; 6.0 h; 150.0 µM

solubility kinetic [µg/mL] | Structure (SMILES)
33.2 (≈ 74.6 µM) | O=S(=O)(Nc1ccc(S(=O)(=O)Nc2nccs2)cc1)c1ccc2ccccc2c1
42.7 (≈ 105 µM) | COc1cccc(CNc2ccc(S(=O)(=O)Nc3nc(C)cs3)cc2)c1O
25 (≈ 68.3 µM) | CCNC(=O)c1ccc(-c2ccc3ncnc(NCC4CCCO4)c3c2)o1 (stereo not drawn)
63.8 (≈ 120 µM) | O=C(c1ccc(C(=O)N2CCC(N3CCCC3)CC2)c(Nc2ccccc2)c1)N1CCC(N2CCCC2)CC1
75.2 (≈ 93.2 µM) | CC[C@H](NC(=O)[C@H](C)NC)C(=O)N1C[C@@H](O)C[C@H]1Cc1c(-c2[nH]c3cc(F)ccc3c2C[C@@H]2C[C@H](O)CN2C(=O)[C@H](CC)NC(=O)[C@H](C)NC)[nH]c2cc(F)ccc12
36.5 (≈ 106 µM) | c1ccc(CNc2cc3c(cn2)CN(Cc2cccnc2)CCN3)cc1
> 38 | Cn1ncnc1[C@H]1c2n[nH]c(=O)c3cc(F)cc(c23)N[C@@H]1c1ccc(F)cc1
31.9 (≈ 73.3 µM) | CC[C@@]1(O)C(=O)OCc2c1cc1n(c2=O)Cc2c-1nc1cc(F)c(C)c3c1c2[C@@H](N)CC3
< 1 | Cc1ccc(-c2cc3c(nn2)-c2ccccc2C3=O)cc1
< 1 | Oc1ccc(CNc2cccc(F)c2F)c2cccnc12
< 1 | Cc1ccc(-c2cc(C(=O)Nc3cccc(S(=O)(=O)Nc4nccs4)c3)c3ccccc3n2)cc1C
2.31 (≈ 5.73 µM) | O=C(Cc1ccc(-c2csc(Nc3ccc(F)cc3)n2)s1)N1CCOCC1
< 1 | Cn1cc(-c2nc(Nc3ccc(F)c(F)c3)c3ccccc3n2)cn1
< 1 | Cc1ccc(S(=O)(=O)Nc2ccncc2C(=O)Nc2nc(-c3ccccc3)cs2)cc1
> 55 | COc1cccc2c1CCCC2CCCN1CCN(C2CCCCC2)CC1 (stereo not drawn)
6.95 (≈ 20.7 µM) | Fc1ccc(Oc2nc(-c3ccncc3)nc3ccccc23)cc1F
2.51 (≈ 5.69 µM) | COc1cc(O)c([C@H](CC(=O)N2CC(C)CC(C)C2)c2ccc3c(c2)OCO3)c(OC)c1 (stereo partly drawn)
< 1 | CCOc1ccc(C(=O)Nc2ccc(S(=O)(=O)N3CCCCC3c3cccnc3)cc2)cc1 (stereo not drawn)
> 47 | O=C(NC1CC1)c1ccc(CSCc2ccccc2Cl)o1
> 60 | COc1ccc(C2(C(=O)N3CCC(n4cc(-c5nc(C)no5)nn4)CC3)CC2)cc1
4.02 (≈ 12.7 µM) | CCOC(=O)c1nn(-c2ccccc2)c(=O)c2c(N)scc12
> 71 | CC[C@H]1CN2CCc3cc(OC)c(OC)cc3[C@@H]2C[C@@H]1C[C@H]1NCCc2cc(OC)c(OC)cc21
< 1 | Cc1ccc(-c2nnc(Nc3ccc(Br)cc3)c3ccccc23)cc1S(=O)(=O)N1CCN(C)CC1

solubility kinetic [µg/mL] | Structure (SMILES)
69.1 (≈ 124 µM) | CN1CCN(c2ccc(-c3cccc(CN4CCOCC4)c3)cc2NC(=O)c2c[nH]c(=O)cc2C(F)(F)F)CC1
< 1 | Cc1ccc(-n2c(=O)c3oc4ccccc4c3n(CC(=O)Nc3ccc(F)c(Cl)c3)c2=O)cc1C
< 1 | O=C1Nc2cccc(Cl)c2/C1=C\c1cc(Cl)c(O)c(Cl)c1
12.2 (≈ 36.4 µM) | COc1ccc(C2Nc3ccccc3C(=O)N2Cc2ccco2)cc1 (stereo not drawn)
< 1 | CSc1ccc(/C=C/c2nc3ccccc3n2S(=O)(=O)c2cccc(Cl)c2)cc1
< 1 | CCOc1ccc(NC(=O)c2nc(S(=O)(=O)Cc3ccccc3F)ncc2Cl)cc1
< 1 | COc1ccc(-c2nc3ccccc3c(=O)n2Cc2ccccc2)cc1COc1ccc(NC(C)=O)cc1
11.7 (≈ 26 µM) | Cc1ccccc1S(=O)(=O)N1CCCC(CCC(=O)NCCN(C)C2CCCCC2)C1 (stereo not drawn)
< 1 | CC(C)c1ccc(OCc2nc3c(n2Cc2ccccc2)C(=O)N(CC2CCOCC2)CCN3)cc1
> 86 | COCCn1ccc2c(C3=CCOCC3)nc(-c3ccc4c(c3)CNC4=O)cc21
> 64 | COc1ccccc1N1CCN(CCN(C(=O)c2ccc(F)cc2)c2ccccn2)CC1
< 1 | Cc1ccc(S(=O)(=O)Nc2ccc(Cl)c(C(=O)Nc3nc(-c4ccccc4)cs3)c2)cc1
< 1 | COc1cccc(CNc2ccc(S(=O)(=O)Nc3ccccc3)cc2)c1O
< 1 | Cc1ccc(S(=O)(=O)Nc2cccc(C(=O)Nc3nc(-c4ccccc4)cs3)c2)cc1
< 1 | Cc1ccc(S(=O)(=O)Nc2ccccc2C(=O)Nc2nc(-c3ccccc3)co2)cc1
42.6 (≈ 91.4 µM) | COc1ccccc1S(=O)(=O)Nc1cnccc1C(=O)Nc1nc(-c2ccccc2)cs1
0.435 (≈ 1.1 µM) | COc1cccc(NC(=S)N2CCN(c3cccc(C(F)(F)F)c3)CC2)n1
45.3 (≈ 117 µM) | Cc1cccc(-n2cnc3cc(C(=O)N4CCCC(C(F)(F)F)C4)ccc32)c1 (stereo not drawn)
< 1 | CSc1nc(N)cc(Oc2ccc(-c3nc(Nc4cccc(C(F)(F)F)c4)n[nH]3)cc2)n1
< 1 | Cc1ccc([S+](=O)([O-])n2cc(Cc3ccc(-c4ccccc4)cc3)c3ccccc32)cc1
32.3 (≈ 111 µM) | NC(=O)C1CCN(c2ncc(Br)s2)CC1
> 47 | COc1ccc(-c2csc(N3CCC(C(N)=O)CC3)n2)cc1

Structure (SMILES) | solubility kinetic [µg/mL]
COc1cc2c3cc1Oc1c(O)c(OC)cc4c1[C@@H](Cc1ccc(cc1)Oc1cc(ccc1O)C[C@H]3N(C)CC2)N(C)CC4 | > 88
Cc1nc(-c2ccccc2)cc([C@H]2CN3CC[C@H]2C[C@@H]3CNC2CCOCC2)n1 | > 58
Cc1c([C@@H](C)C2NC[C@H](C)C[C@@H]2O)ccc2c1C[C@@H]1[C@H]2CC=C2C[C@@H](O)CC[C@@]21C (stereo partly drawn) | 40.9 (≈ 99.7 µM)
